Results as given in US10167262B2, “Herbicidal substituted 3-arylpyrazoles” (FMC CORPORATION, priority 2014, dated 2019).
Like-named read-outs stand apart in the source and are kept apart here.

Assays:
Format in all cases: in vivo
[1] = test system: giant foxtail (Setaria faberii); assay: Test A pre-/postemergence greenhouse herbicide test, visual injury rating 0-100; conditions: for pest or weed control at 500 g/ha: 500 g ai/ha
Method in brief: (§1)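 Postemergence treatment targeted seedlings 2 to 10 cm high with one to two leaves, while preemergence treatment was a directed spray onto freshly planted loam/sand soil. Injury was scored visually about 10 days later.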

corn (Zea mays) = assay: as above; conditions: for plant injury at 500 g/ha: 500 g ai/ha
Method in brief: as §1

[2] = test system: pigweed (Amaranthus retroflexus); assay: as above; conditions: for pest or weed control at 500 g/ha: 500 g ai/ha
Method in brief: as §1

[3] = test system: large (Lg) crabgrass (Digitaria sanguinalis); assay: as above; conditions: for pest or weed control at 500 g/ha: 500 g ai/ha
Method in brief: as §1

[4] = test system: wheat (Triticum aestivum); assay: as above; conditions: for plant injury at 500 g/ha: 500 g ai/ha
Method in brief: as §1

[5] = test system: velvetleaf (Abutilon theophrasti); assay: as above; conditions: Abutilon theophrasti, 240 h, read-out: Plant response rating (0 to 100 scale), Velvetleaf; for pest or weed control at 500 g/ha: 500 g ai/ha
Method in brief: as §1

[6] = test system: barnyardgrass (Echinochloa crus-galli); assay: as above; conditions: for pest or weed control at 500 g/ha: 500 g ai/ha
Method in brief: as §1

[7] = test system: morningglory (Ipomoea spp.); assay: as above; conditions: for pest or weed control at 500 g/ha: 500 g ai/ha
Method in brief: as §1

kochia (Kochia scoparia) = assay: Test C postemergence greenhouse test, plant response rating 0-100; conditions: Bassia scoparia, post-emergence
Method in brief: (§2)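 Response is a visual 0–100 control rating taken 13 to 15 days post-treatment, with a dash marking no result. Plants ranged 2 to 18 cm when treated postemergence.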

[8] = test system: chickweed (common chickweed, Stellaria media); assay: as above; conditions: Stellaria media, post-emergence
Method in brief: as §2

wild oat (Avena fatua) = assay: as above; conditions: Avena fatua, post-emergence
Method in brief: as §2

[9] = test system: ragweed (common ragweed, Ambrosia elatior); assay: Test C pre-/postemergence greenhouse test, plant response rating 0-100; conditions: Ambrosia artemisiifolia; for pest or weed control at 62 g/ha: 62 g ai/ha; for pest or weed control at 125 g/ha: 125 g ai/ha; for pest or weed control at 250 g/ha: 250 g ai/ha
Method in brief: (§3)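 Formulated in solvent with surfactant, test chemicals were sprayed on seeded loam/sand pots and, concurrently, on young plants 2–18 cm tall. Evaluation: visual, versus controls, day 13–15.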

[10] = test system: blackgrass (Alopecurus myosuroides); assay: as above; conditions: Alopecurus myosuroides; for pest or weed control at 62 g/ha: 62 g ai/ha; for pest or weed control at 125 g/ha: 125 g ai/ha; for pest or weed control at 250 g/ha: 250 g ai/ha; for pest or weed control at 500 g/ha: 500 g ai/ha
Method in brief: as §3

[11] = post-emergence, Postemergence, read-out: Plant response rating (0 to 100), Ragweed
[12] = post-emergence, Postemergence, scale 0 to 100
[13] = pre-emergence, Preemergence, read-out: Plant response rating, Ragweed
[14] = pre-emergence, Preemergence, read-out: Plant response rating, Blackgrass

COC(OC)(c1ccccc1)c1c[nH]nc1-c1cc(Cl)cc(Cl)c1 [Compound 13, 3-(3,5-dichlorophenyl)-4-(dimethoxyphenylmethyl)-1H-pyrazole]
Foxtail, Giant plant response rating (0 = no effect, 100 = complete control) ([1]; Preemergence, 125 g ai/ha): 0 | pest or weed control at 125 g/ha ([1]; Setaria faberi, post-emergence, 240 h, Postemergence, 125 g ai/ha, read-out: Plant response rating (0 to 100 scale), Foxtail, Giant): 0% | pest or weed control at 500 g/ha ([1]; Setaria faberi, post-emergence, 240 h, Postemergence, read-out: Plant response rating (0 to 100 scale), Foxtail, Giant): 0% | pest or weed control at 500 g/ha ([1]; Setaria faberi, pre-emergence, 240 h, Preemergence, read-out: Plant response rating (0 to 100 scale), Foxtail, Giant): 0% | Corn plant response rating (0 = no effect, 100 = complete control) (corn (Zea mays); Preemergence, 125 g ai/ha): 0 | plant injury at 125 g/ha (corn (Zea mays); Zea mays, post-emergence, 240 h, Postemergence, 125 g ai/ha, read-out: Plant response rating (0 to 100 scale), Corn): 0% | plant injury at 500 g/ha (corn (Zea mays); Zea mays, post-emergence, 240 h, Postemergence, read-out: Plant response rating (0 to 100 scale), Corn): 0% | plant injury at 500 g/ha (corn (Zea mays); Zea mays, pre-emergence, 240 h, Preemergence, read-out: Plant response rating (0 to 100 scale), Corn): 0% | pest or weed control at 125 g/ha ([2]; Amaranthus retroflexus, post-emergence, 240 h, Postemergence, 125 g ai/ha, read-out: Plant response rating (0 to 100 scale), Pigweed): 90% | pest or weed control at 500 g/ha ([2]; Amaranthus retroflexus, post-emergence, 240 h, Postemergence, read-out: Plant response rating (0 to 100 scale), Pigweed): 100% | pest or weed control at 500 g/ha ([2]; Amaranthus retroflexus, pre-emergence, 240 h, Preemergence, read-out: Plant response rating (0 to 100 scale), Pigweed): 100% | Pigweed plant response rating (0 = no effect, 100 = complete control) ([2]; Preemergence, 125 g ai/ha): 70 | pest or weed control at 125 g/ha ([3]; Digitaria sanguinalis, post-emergence, 240 h, Postemergence, 125 g ai/ha, read-out: Plant response rating (0 to 100 scale), Crabgrass, Large): 0% | pest or weed control at 500 g/ha ([3]; Digitaria sanguinalis, post-emergence, 240 h, Postemergence, read-out: Plant response rating (0 to 100 scale), Crabgrass, Large): 0% | pest or weed control at 500 g/ha ([3]; Digitaria sanguinalis, pre-emergence, 240 h, Preemergence, read-out: Plant response rating (0 to 100 scale), Crabgrass, Large): 0% | Crabgrass, Large plant response rating (0 = no effect, 100 = complete control) ([3]; Preemergence, 125 g ai/ha): 0 | Wheat plant response rating (0 = no effect, 100 = complete control) ([4]; Preemergence, 125 g ai/ha): 0 | plant injury at 125 g/ha ([4]; Triticum aestivum, post-emergence, 240 h, Postemergence, 125 g ai/ha, read-out: Plant response rating (0 to 100 scale), Wheat): 0% | plant injury at 500 g/ha ([4]; Triticum aestivum, post-emergence, 240 h, Postemergence, read-out: Plant response rating (0 to 100 scale), Wheat): 0% | plant injury at 500 g/ha ([4]; Triticum aestivum, pre-emergence, 240 h, Preemergence, read-out: Plant response rating (0 to 100 scale), Wheat): 0% | pest or weed control at 125 g/ha ([5]; post-emergence, Postemergence, 125 g ai/ha): 80% | pest or weed control at 500 g/ha ([5]; post-emergence, Postemergence): 90% | pest or weed control at 500 g/ha ([5]; pre-emergence, Preemergence): 70% | pest or weed control at 125 g/ha ([6]; Echinochloa crus-galli, post-emergence, 240 h, Postemergence, 125 g ai/ha, read-out: Plant response rating (0 to 100 scale), Barnyardgrass): 0% | pest or weed control at 500 g/ha ([6]; Echinochloa crus-galli, post-emergence, 240 h, Postemergence, read-out: Plant response rating (0 to 100 scale), Barnyardgrass): 0% | pest or weed control at 500 g/ha ([6]; Echinochloa crus-galli, pre-emergence, 240 h, Preemergence, read-out: Plant response rating (0 to 100 scale), Barnyardgrass): 0% | Barnyardgrass plant response rating (0 = no effect, 100 = complete control) ([6]; Preemergence, 125 g ai/ha): 0 | pest or weed control at 125 g/ha ([7]; Ipomoea, post-emergence, 240 h, Postemergence, 125 g ai/ha, read-out: Plant response rating (0 to 100 scale), Morningglory): 0% | pest or weed control at 500 g/ha ([7]; Ipomoea, post-emergence, 240 h, Postemergence, read-out: Plant response rating (0 to 100 scale), Morningglory): 0% | pest or weed control at 500 g/ha ([7]; Ipomoea, pre-emergence, 240 h, Preemergence, read-out: Plant response rating (0 to 100 scale), Morningglory): 0% | Morningglory plant response rating (0 = no effect, 100 = complete control) ([7]; Preemergence, 125 g ai/ha): 0 | pest or weed control at 62 g/ha (kochia (Kochia scoparia); 62 g ai/ha): 85% | pest or weed control at 125 g/ha (kochia (Kochia scoparia); 125 g ai/ha): 80% | pest or weed control at 250 g/ha (kochia (Kochia scoparia); 250 g ai/ha, scale 0 to 100): 85% | pest or weed control at 500 g/ha (kochia (Kochia scoparia); 500 g ai/ha, scale 0 to 100): 90% | pest or weed control at 62 g/ha ([8]; 62 g ai/ha): 100% | pest or weed control at 125 g/ha ([8]; 125 g ai/ha): 85% | pest or weed control at 250 g/ha ([8]; 250 g ai/ha, scale 0 to 100): 100% | pest or weed control at 500 g/ha ([8]; 500 g ai/ha, scale 0 to 100): 100% | pest or weed control at 62 g/ha (wild oat (Avena fatua); 62 g ai/ha): 0% | pest or weed control at 125 g/ha (wild oat (Avena fatua); 125 g ai/ha): 0% | pest or weed control at 250 g/ha (wild oat (Avena fatua); 250 g ai/ha, scale 0 to 100): 0% | pest or weed control at 500 g/ha (wild oat (Avena fatua); 500 g ai/ha, scale 0 to 100): 5% | pest or weed control at 62 g/ha [9, 11]: 50% | pest or weed control at 125 g/ha [9, 11]: 50% | pest or weed control at 250 g/ha [9, 12]: 75% | pest or weed control at 500 g/ha ([9]; post-emergence, Postemergence, 500 g ai/ha, scale 0 to 100): 80% | pest or weed control at 62 g/ha [9, 13]: 85% | pest or weed control at 125 g/ha [9, 13]: 100% | pest or weed control at 250 g/ha ([9]; pre-emergence, Preemergence): 100% | pest or weed control at 62 g/ha ([10]; post-emergence, Postemergence, read-out: Plant response rating (0 to 100), Blackgrass): 5% | pest or weed control at 125 g/ha ([10]; post-emergence, Postemergence, scale 0 to 100, read-out: Plant response rating, Blackgrass): 0% | pest or weed control at 250 g/ha [10, 12]: 0% | pest or weed control at 500 g/ha [10, 12]: 0% | pest or weed control at 62 g/ha [10, 14]: 10% | pest or weed control at 125 g/ha [10, 14]: 10% | pest or weed control at 250 g/ha ([10]; pre-emergence, Preemergence): 50% | pest or weed control at 500 g/ha ([10]; pre-emergence, Preemergence): 40%
